# Test results published in patent publication US4346087A, “Antibacterial surface active agent containing azaalkenelactam” (priority 1979, dated 1982).
# Like-named read-outs stand apart in the source and are kept apart here.
# Columns and labels:
# Type in all cases: cell-based
# [1] = test system: Desulfovibrio desulfuricans IFO 13699; assay: MIC against Desulfovibrio desulfuricans
# Text: (§1) Below are described the antibacterial activities of the compounds in the compositions according to this invention.
# (§2) The testing method complied with the standard method of Japan Sociaty of Chemotherapy.
# [2] = test system: Staphylococcus aureus FDA 209P; assay: MIC against Staphylococcus aureus FDA 209P
# Text: as §1, §2
# Escherichia coli NIHJ = assay: MIC against Escherichia coli NIHJ
# Text: as §1, §2
# [3] = Desulfovibrio desulfuricans, IFO13699, 24 h
# [4] = Staphylococcus aureus, FDA209P, 24 h
# [5] = Escherichia coli, Table 2, derivatives having a carboxylate radical, heart infusion agar, 37° C., 24 hours, read-out: MIC
# [6] = Escherichia coli, Table 1, azaalkenelactams, heart infusion agar, 37° C., 24 hours, read-out: MIC
# [7] = Table 2, derivatives having a carboxylate radical, heart infusion agar, 37° C., 24 hours
# [8] = Desulfovibrio desulfuricans, IFO13699, Table 1, azaalkenelactams, heart infusion agar, 37° C., 24 hours, read-out: MIC
# [9] = Desulfovibrio desulfuricans, IFO13699, Table 2, derivatives having a carboxylate radical, heart infusion agar, 37° C., 24 hours, read-out: MIC
# [10] = Table 1, azaalkenelactams, heart infusion agar, 37° C., 24 hours
Compound,"MIC [1, 3] [µg/mL]","MIC [2, 4] [µg/mL]","MIC (Escherichia coli NIHJ; Escherichia coli, 24 h) [µg/mL]",further results
CCCCCCCCCCCC(=O)OCCN1CCC[N+](CC(=O)[O-])=C(C)CC1=O [1-lauroyloxyethyl-4-methyl-1-aza-5-azoniacyclooct-4-en-2-one-5-acetate],25,400,–,MIC (Escherichia coli NIHJ; [5]): 3200 µg/mL
CCCCCCCCc1ccc(OCCOC(C)COC(C)CN2CC[N+](CC(=O)[O-])=C(C)CC2=O)cc1 (stereo not drawn),50,50,–,MIC (Escherichia coli NIHJ; [5]): 800 µg/mL
"CCCCCCCCCc1ccc(OCC(O)CNCCNCCNCCN2CCN=C(C)CC2=O)cc1 (stereo not drawn) [Example 32, 4-nonylphenoxy(2-hydroxy)propylaminoethylaminoethylaminoethyl-7-methyl-3,6-dihydro-2H-1,4-diazepin-5-one]",25,200,–,MIC (Escherichia coli NIHJ; [6]): 800 µg/mL
"CCCCCCCCCCCCCCNCCN1CC[N+](C(C)C(=O)[O-])=CC(C)(C)C1=O (stereo not drawn) [4-tetradecylaminoethyl-6,6-dimethyl-1-azonia-4-azacyclohept-7-en-5-one-1-propionate]",6.25,6.25,100,–
CCCCCCCCCCCCCCCCN1CC[N+](CC(=O)[O-])=C(C)CC1=O [4-hexadecyl-7-methyl-1-azonia-4-azacyclohept-7-en-5-one-1-acetate],12.5,100,–,MIC (Escherichia coli NIHJ; [5]): 3200 µg/mL
"CCCCCCCCCc1ccc(OCCOCCN2CCCN=CC(C)(C)C2=O)cc1 [Example 62, 1-nonylphenylpoly(2 moles)oxyethyleneoxyethyl-3,3-dimethyl-6,7,8-trihydro-1,5-diazocin-5-one]",50,100,200,–
4-isostearamidoethyl-7-methyl-1-azonia-4-azacyclohept-7-en-5-one-1-acetate,–,–,–,MIC [1]: 25 µg/mL; MIC [2]: 50 µg/mL; MIC (Escherichia coli NIHJ; [7]): 3200 µg/mL
"CCCCCCCCCc1ccc(OCCOCCN2CCCN=C(C)CC2=O)cc1 [Example 7, 1-nonylphenylpoly(2 moles)oxyethyleneoxyethyl-4-methyl-3,6,7,8-tetrahydro-1,5-diazocin-2-one]",12.5,12.5,200,–
CCCCCCCCCCCCCCCCCCCCCCNCCN1CC[N+](CC(=O)[O-])=C(C)CC1=O [4-docosylaminoethyl-7-methyl-1-azonia-4-azacyclohept-7-en-5-one-1-acetate],12.5,12.5,–,MIC (Escherichia coli NIHJ; [5]): 3200 µg/mL
CCCCCCCCCCCCN1CC[N+](CC(=O)[O-])=C(C)CC1=O [4-dodecyl-7-methyl-1-azonia-4-azacyclohept-7-en-5-on-1-acetate],12.5,50,–,MIC (Escherichia coli NIHJ; [5]): 3200 µg/mL
"CCCCCCCC(=O)NCCN1CCN=CCCC1=O [Example 56, 4-octamidoethyl-2,3,6,7-tetrahydro-1,4-diazocin-5-one]",50,200,100,–
"CC1=NCCN(CC(C)OCC(C)OCC(C)OCc2ccc(C)cc2)C(=O)C1 (stereo not drawn) [Example 39, 4-methylbenzylpoly(2moles)oxypropyleneoxypropyl-7-methyl-3,6-dihydro-2H-1,4-diazepin-5-one]",50,25,200,–
"CCCCCCCCCCCC(=O)OCCN1CCN=CC(C)C1=O (stereo not drawn) [Example 47, 4-lauroyloxyethyl-6-methyl-3,6-dihydro-2H-1,4-diazepin-5-one]",–,–,–,"MIC [1, 8]: 50 µg/mL; MIC ([2]; Staphylococcus aureus, FDA209P, Table 1, azaalkenelactams, heart infusion agar, 37° C., 24 hours, read-out: MIC): 50 µg/mL; MIC (Escherichia coli NIHJ; [6]): 200 µg/mL"
"CCCCCCCCCCCCC(O)CN1CCCN=C(C)CC1=O (stereo not drawn) [Example 27, 1-(2-hydroxy)tetradecyl-4-methyl-3,6,7,8-tetrahydro-1,5-diazocin-2-one]",–,12.5,25,"MIC [1, 8]: 6.25 µg/mL"
"CCCCCCCCOCCCN1CCN=C(C)CC1=O [Example 8, 4-octoxypropyl-7-methyl-3,6-dihydro-2H-1,4-diazepin-5-one]",50,50,–,MIC (Escherichia coli NIHJ; [6]): 800 µg/mL
"CCCCCCCCCCCC(=O)NCCN1CCN=CC(C)C1=O (stereo not drawn) [Example 46, 4-lauramidoethyl-6-methyl-3,6-dihydro-2H-1,4-diazepin-5-one]",6.25,6.25,25,–
CCCCCCCCCCCCCCC(O)CNCCN1CC[N+](CC(=O)[O-])=C(C)CC1=O (stereo not drawn) [4-(2-hydroxyhexadecyl)aminoethyl-7-methyl-1-azonia-4-azacyclohept-7-en-5-one-1-acetate],–,25,50,"MIC [1, 9]: 3.12 µg/mL"
"CCCCCCCCCCCCNCCCN1CCCN=C(C)CC1=O [Example 36, 1-dodecylaminopropyl-4-methyl-3,6,7,8-tetrahydro-1,5-diazocin-2-one]",25,12.5,50,–

Compound,"MIC [1, 3] [µg/mL]","MIC [2, 4] [µg/mL]","MIC (Escherichia coli NIHJ; Escherichia coli, 24 h) [µg/mL]",further results
"CCCCCCCCCCCCCCCCCCCCCC(=O)OCCCN1CCCN=C(C)CC1=O [Example 25, 1-behenoyloxypropyl-4-methyl-3,6,7,8-tetrahydro-1,5-diazocin-2-one]",–,–,–,MIC [1]: 50 µg/mL; MIC [2]: 200 µg/mL; MIC (Escherichia coli NIHJ; [10]): 1600 µg/mL
"CCCCCCCCCCCCCCNCCN1CCC[N+](C(C)C(=O)[O-])=CC(C)(C)C1=O (stereo not drawn) [1-tetradecylaminoethyl-3,3-dimethyl-1-aza-5-azoniacyclooct-4-en-2-one-5-propionate]",6.25,12.5,100,–
"CCCCCCCCCCCC[N+](C)(C)CC(=O)[O-] [Lauryldimethylbetaine, lauryldimethylbetaine, reference compound]",–,–,–,"MIC [1, 9]: 1600 µg/mL; MIC ([2]; Staphylococcus aureus, FDA209P, Table 2, derivatives having a carboxylate radical, heart infusion agar, 37° C., 24 hours, read-out: MIC): ≥ 10000 µg/mL; MIC (Escherichia coli NIHJ; [5]): ≥ 10000 µg/mL"
"CCCCCCCCCCCCCCC(O)CNCCN1CC[N+](CC(=O)[O-])=CC(C)(C)C1=O (stereo not drawn) [4-(2-hydroxyhexadecyl)aminoethyl-6,6-dimethyl-1-azonia-4-azacyclohept-7-en-5-one-1-acetate]",6.25,12.5,200,–
"CCCCCCCCCCC(O)CN1CCCN=CC(C)C1=O (stereo not drawn) [Example 45, 1-(2-hydroxy)dodecyl-3-methyl-3,6,7,8-tetrahydro-1,5-diazocin-2-one]",–,–,–,"MIC [1, 10]: 50 µg/mL; MIC [2, 10]: 100 µg/mL; MIC (Escherichia coli NIHJ; [10]): 800 µg/mL"
"4-octoxy(2-hydroxy)propyl-7-methyl-3,6-dihydro-2H-1,4-diazepin-5-one [Example 31]",–,–,–,MIC [1]: 50 µg/mL; MIC [2]: 50 µg/mL; MIC (Escherichia coli NIHJ): 400 µg/mL
1-octadecylaminopropyl-4-methyl-1-aza-5-azoniacyclooct-4-en-2-one-5-propionate,–,–,–,MIC [1]: 6.25 µg/mL; MIC [2]: 6.25 µg/mL; MIC (Escherichia coli NIHJ): 100 µg/mL
"CCCCCCCCCCCCC(O)CNCCN1CCN=C(C)CC1=O (stereo not drawn) [Example 28, 4-(2-hydroxytetradecyl)aminoethyl-7-methyl-3,6-dihydro-2H-1,4-diazepin-5-one]",–,25,25,"MIC [1, 8]: 12.5 µg/mL"
CCCCCCC(O)CC=CCCCCCCCC(=O)OC(C)CN1CCCN=C(C)CC1=O (stereo not drawn) [Example 21],25,50,–,MIC (Escherichia coli NIHJ; [6]): 800 µg/mL
CCCCCCCCCCCCOCC(O)CN1CCC[N+](C(C)C(=O)[O-])=C(C)CC1=O (stereo not drawn) [1-docoxy(2-hydroxy)propyl-4-methyl-1-aza-5-azoniacyclooct-4-en-2-one-5-propionate],12.5,25,–,MIC (Escherichia coli NIHJ; [5]): 800 µg/mL
4-(2-hydroxyhexadecyl)aminoethyl-6-methyl-1-azonia-4-azacyclohept-7-en-5-one-1-acetate,–,–,–,"MIC [1, 7]: 3.12 µg/mL; MIC [2]: 12.5 µg/mL; MIC (Escherichia coli NIHJ): 100 µg/mL"
CCCCCCCCCCCCCCNCCN1CCC[N+](C(C)C(=O)[O-])=CC(C)C1=O (stereo not drawn) [1-tetradecylaminoethyl-3-methyl-1-aza-5-azoniacyclooct-4-en-2-one-5-propionate],6.25,6.25,100,–
"CCCCCCCCC=CCCCCCCCCN1CCCN=C(C)CC1=O [Example 4, 1-(9-octadecenyl)-4-methyl-3,6,7,8-tetrahydro-1,5-diazocin-2-one]",12.5,25,–,MIC (Escherichia coli NIHJ; [6]): 800 µg/mL
"CCCCCC[C@@H](O)C/C=C\CCCCCCCC(=O)NCCN1CC[N+](CC(=O)[O-])=CC(C)(C)C1=O [4-ricinolamidoethyl-6,6-dimethyl-1-azonia-4-azacyclohept-7-en-5-one-1-acetate]",50,400,–,MIC (Escherichia coli NIHJ; [5]): 1600 µg/mL
"CCCCCCCCCCCCCCCCCCCCCC(=O)OCCCN1CCCN=CC(C)C1=O (stereo not drawn) [Example 51, 1-behenoyloxypropyl-3-methyl-3,6,7,8-tetrahydro-1,5-diazocin-2-one]",–,–,–,"MIC [1]: 12.5 µg/mL; MIC [2, 10]: 25 µg/mL; MIC (Escherichia coli NIHJ; [10]): 100 µg/mL"
CCCCCCCCCc1ccc(OCCOCCN2CCC[N+](CC(=O)[O-])=C(C)CC2=O)cc1 [1-nonylphenylpoly(2 moles)oxyethyleneoxyethyl-4-methyl-1-aza-5-azoniacyclooct-4-en-2-one-5-acetate],25,12.5,200,–
CCCCCCCCCCCC(=O)NCCN1CC[N+](CC(=O)[O-])=CC(C)C1=O (stereo not drawn) [4-lauramidoethyl-6-methyl-1-azonia-4-azacyclohept-7-en-5-one-1-acetate],6.25,12.5,50,–
1-hydroxyethyl-2-undecylimidazolineumbetaine [reference compound],–,–,–,"MIC [1]: 400 µg/mL; MIC [2, 7]: 3600 µg/mL; MIC (Escherichia coli NIHJ; [7]): ≥ 10000 µg/mL"
